Data published in PMC6213047, “Design of Antibacterial Agents: Alkyl Dihydroxybenzoates against Xanthomonas citri subsp. citri” (International Journal of Molecular Sciences, 2018).
Read-outs that look alike come from different tables or passages of the source.

What was measured:
[1] = Partition coefficient log Po/w by HPLC (OECD 117); format: physicochemical; settings: HPLC method, OECD 117, methanol:water 3:1
Procedure: The analyses were performed with the use of an isocratic flow in methanol: water (3:1) at 1.0 mL min^−1. We injected 20.0 μL and analyses were performed at 254 nm. We used as reference compounds thiourea, phenol, acetophenone, benzoic acid, benzene, toluene, biphenyl, fluoranthene and triphenylamine in order to construct the curve log K × log Po/w. The lipophilicity of alkyl dihydroxybenzoates was determined from their retention times and interpolation in linearity curve log K × log Po/w. We performed the analyses in duplicate.

[2] = tested on: X. citri subsp. citri strain 306 (IBSBF 1594); experiment: MIC by Resazurin Microtiter Assay (REMA); format: cell-based, Xanthomonas citri subsp. citri; settings: Xanthomonas citri, 12 h
Procedure: The antibacterial potential of carboxylic acids and their esters were compared to copper oxychloride (a commercial active often used to combat citrus canker). Minimal inhibitory concentration (MIC) values were determined by REMA assay, which measures cellular respiratory activity.
(§1) The antibacterial activity of alkyl dihydroxybenzoates and the determination of minimum inhibition concentration (MIC) were performed by the fluorimetric method Resazurin Microtiter Assay (REMA) with some modifications. An overnight culture of X. citri subsp. citri strain 306 (IBSBF 1594) was grown in 20 mL in Nitrogen Yeast Glycerol (NYG) at 29 °C in constant agitation of 180–200 rpm. After 12 h, the Xcc inoculum was dispersed in NYG medium and distributed into a 96 well microtiter plate to a final volume of 100 μL per well (10^5 CFU per well). Stock solutions of tested compounds at 10 mg mL^−1 were prepared in dimethyl sulfoxide (DMSO) and dispersed in NYG medium to obtain 1% DMSO and the final compound concentration range of 0.78–100 μg mL^−1. The negative control was constituted of 100 μL culture medium. In addition, the copper oxychloride was tested as a comparison to alkyl dihydroxybenzoates and kanamycin (20 μg mL^−1), which was used as a control antibiotic. The plate was subsequently incubated at 29 °C for 12 h, and 15 μg mL^−1 freshly prepared resazurin solution in water was added to each well, and the plate was incubated for 2 h. The fluorescence was determined on a Synergy H1 (BioTek, Winooski, VT, USA) microplate reader using the excitation and emission filters at wavelengths of 530 and 590 nm respectively. After the REMA assay, the minimum bactericidal concentration (CBM) assay was performed using a 96-pin stainless steel plate replicator, accurately transferring the wells from the REMA plate to Petri dishes Petri dishes were incubated in oven B.O.D. at 29 °C for 24 to 48 h. The experiments were performed in triplicate.

[3] = tested on: X. citri subsp. citri strain 306 (IBSBF 1594); experiment: MBC, REMA plates replicated to Petri dishes; format: cell-based, Xanthomonas citri subsp. citri; settings: Xanthomonas citri
Procedure: The minimal bactericidal concentration (MBC) was determined by observing the bacterial growth in Petri dishes transferred from the REMA plates.
as §1

[4] = REMA, NYG medium, 29 °C, read-out: MIC
[5] = REMA, NYG medium, 29 °C, read-out: MIC in μM
[6] = Petri dishes from REMA plates, 29 °C, 24 to 48 h, read-out: MBC

Row | SMILES | chromatographic logP [1] | MIC [2, 4] | MIC [2, 5] | MBC [3, 6] | MIC ([2]; REMA, NYG medium, 29 °C) | MIC ([2]; read-out: MIC in μM, REMA, NYG medium, 29 °C, 12 h) | MBC [3]
1 | O=C(O)c1ccc(O)cc1O [2,4 DHB acid, 2,4 dihydroxybenzoic acid, reference compound] | 2.6 | > 100 µg/mL | > 648 µM | > 100 µg/mL |  |  | 
2 | O=C(O)c1cc(O)ccc1O [2,5 DHB acid, 2,5 dihydroxybenzoic acid, reference compound] | 2.8 | > 100 µg/mL | > 648 µM | > 100 µg/mL |  |  | 
3 | O=C(O)c1ccc(O)c(O)c1 [3,4 DHB acid, 3,4 dihydroxybenzoic acid, reference compound] | 0.8 | > 100 µg/mL | > 648 µM | > 100 µg/mL |  |  | 
4 | CCOC(=O)c1ccc(O)cc1O [Compound 1] | 2.8 | > 100 µg/mL | > 548 µM | > 100 µg/mL |  |  | 
5 | CCCCOC(=O)c1ccc(O)cc1O [Compound 2] | 3.9 |  | 189 µM | 50 µg/mL |  |  | 
6 | CCCCCCOC(=O)c1ccc(O)cc1O [Compound 3] | 5 |  | 84 µM | 50 µg/mL |  |  | 
7 | CCCCCCCCOC(=O)c1ccc(O)cc1O [Compound 5] | 6.1 | > 100 µg/mL | > 375 µM | > 100 µg/mL |  |  | 
8 | CCCCCCCCCOC(=O)c1ccc(O)cc1O [Compound 6] | 6.2 | > 100 µg/mL | > 356 µM | > 100 µg/mL |  |  | 
9 | CCCCCCCCCCOC(=O)c1ccc(O)cc1O [Compound 7] | 6.9 | > 100 µg/mL | > 340 µM | > 100 µg/mL |  |  | 
10 | CCCCCCCCCCCCOC(=O)c1ccc(O)cc1O [Compound 8, dodecyl 2,4 dihydroxybenzoate] | 7 | > 100 µg/mL | > 310 µM | > 100 µg/mL |  |  | 
11 | CC(C)OC(=O)c1ccc(O)cc1O [Compound 9] | 2.6 | > 100 µg/mL | > 510 µM | > 100 µg/mL |  |  | 
12 | O=C(OC1CCCC1)c1ccc(O)cc1O [Compound 10] | 2.2 | > 100 µg/mL | > 450 µM | > 100 µg/mL |  |  | 
13 | O=C(OC1CCCCC1)c1ccc(O)cc1O [Compound 11] | 4 |  | 171 µM | 100 µg/mL |  |  | 
14 | CCOC(=O)c1cc(O)ccc1O [Compound 13] | 2.4 | > 100 µg/mL | > 549 µM | > 100 µg/mL |  |  | 
15 | CCCCOC(=O)c1cc(O)ccc1O [Compound 14] | 3.4 | > 100 µg/mL | > 475 µM | > 100 µg/mL |  |  | 
16 | CCCCCCOC(=O)c1cc(O)ccc1O [Compound 15] | 4.5 |  | 140 µM | 50 µg/mL |  |  | 
17 | CCCCCCCCOC(=O)c1cc(O)ccc1O [Compound 17] | 5.2 | > 100 µg/mL | > 375 µM | > 100 µg/mL |  |  | 
18 | CCCCCCCCCOC(=O)c1cc(O)ccc1O [Compound 18] | 5.7 | > 100 µg/mL | > 357 µM | > 100 µg/mL |  |  | 

Row | SMILES | chromatographic logP [1] | MIC [2, 4] | MIC [2, 5] | MBC [3, 6] | MIC ([2]; REMA, NYG medium, 29 °C) | MIC ([2]; read-out: MIC in μM, REMA, NYG medium, 29 °C, 12 h) | MBC [3]
19 | CCCCCCCCCCOC(=O)c1cc(O)ccc1O [Compound 19] | 6.3 | > 100 µg/mL | > 340 µM | > 100 µg/mL |  |  | 
20 | CCCCCCCCCCCCOC(=O)c1cc(O)ccc1O [Compound 20] | 6.8 | > 100 µg/mL | > 310 µM | > 100 µg/mL |  |  | 
21 | CC(C)OC(=O)c1cc(O)ccc1O [Compound 21] | 2.2 | > 100 µg/mL | > 510 µM | > 100 µg/mL |  |  | 
22 | O=C(OC1CCCC1)c1cc(O)ccc1O [Compound 22] | 3 | 83.5 µg/mL | 375 µM | 100 µg/mL |  |  | 
23 | O=C(OC1CCCCC1)c1cc(O)ccc1O [Compound 23] | 3.5 | 90.4 µg/mL | 382 µM | 100 µg/mL |  |  | 
24 | O=C(OCCc1ccccc1)c1cc(O)ccc1O [Compound 24] | 3.1 | 59.7 µg/mL | 231 µM | 100 µg/mL |  |  | 
25 | CCOC(=O)c1ccc(O)c(O)c1 [Compound 25] | 1.7 | > 100 µg/mL | > 549 µM | > 100 µg/mL |  |  | 
26 | CCCCOC(=O)c1ccc(O)c(O)c1 [Compound 26] | 2.6 | > 100 µg/mL | > 475 µM | > 100 µg/mL |  |  | 
27 | CCCCCCOC(=O)c1ccc(O)c(O)c1 [Compound 27] | 3.7 | 44.4 µg/mL | 186 µM | 50 µg/mL |  |  | 
28 | CCCCCCCCOC(=O)c1ccc(O)c(O)c1 [Compound 29] | 4.9 | 31.2 µg/mL | 117 µM | 50 µg/mL |  |  | 
29 | CCCCCCCCCOC(=O)c1ccc(O)c(O)c1 [Compound 30] | 5.5 | 26.7 µg/mL | 95 µM | 50 µg/mL |  |  | 
30 | CCCCCCCCCCOC(=O)c1ccc(O)c(O)c1 [Compound 31] |  |  |  |  | > 100 µg/mL | > 340 µM | 100 µg/mL
31 | CCCCCCCCCCCCOC(=O)c1ccc(O)c(O)c1 [Compound 32] | 6.9 | > 100 µg/mL | > 310 µM | > 100 µg/mL |  |  | 
32 | CC(C)OC(=O)c1ccc(O)c(O)c1 [Compound 33] | 1.4 | > 100 µg/mL | > 510 µM | > 100 µg/mL |  |  | 
33 | O=C(OC1CCCC1)c1ccc(O)c(O)c1 [Compound 34] | 2.2 | > 100 µg/mL | > 450 µM | > 100 µg/mL |  |  | 
34 | O=C(OC1CCCCC1)c1ccc(O)c(O)c1 [Compound 35] | 2.7 | > 100 µg/mL | > 423 µM | > 100 µg/mL |  |  | 
35 | O=C(OCCc1ccccc1)c1ccc(O)c(O)c1 [Compound 36] | 2.4 | < 100 µg/mL | 345 µM | 100 µg/mL |  |  | 
